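Dose response: 5 concentrations. Exposure: 48 h. Format: 96-well plates. Endpoint: linear interpolation; highest concentration if not reached. Definition used: TGI = concentration required for complete inhibition of growth.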
Key:
Assay in all cases: growth of human tumour cells (NCI), 48 h
[1] = tested on: CAKI-1 renal
[2] = tested on: COLO 205 colon
[3] = tested on: HCT-15 colon
[4] = tested on: MDA-N
[5] = tested on: OVCAR-4 ovarian
[6] = tested on: PC-3 prostate
[7] = tested on: SK-MEL-5 melanoma
[8] = tested on: SN12C renal
[9] = tested on: TK-10 renal
[10] = tested on: HL-60(TB) leukemia

Compound | TGI [1] [µM] | TGI [2] [µM] | TGI [3] [µM] | TGI [4] [µM] | TGI [5] [µM] | TGI [6] [µM] | TGI [7] [µM] | TGI [8] [µM] | TGI [9] [µM] | TGI [10] [µM]
CSCSSC | > 100 | > 100 | > 100 | > 100 | > 100 | > 100 | > 100 | > 100 | > 100 | –
Cc1ccc(/C(O)=C/c2nc3ccccc3sc2=O)c(C)c1 | > 100 | > 100 | > 100 | > 100 | 70.8 | > 100 | > 100 | > 100 | > 100 | 69.6
CC(C)=NN/C(=N\S(=O)(=O)c1ccc(Oc2cccc(Cl)c2C#N)cc1)Nc1ccc(Cl)cc1 | > 100 | > 100 | > 100 | > 100 | > 100 | > 100 | > 100 | > 100 | > 100 | > 100
O=C1C[C@@H](C(=O)OCc2ccccc2)NC(=O)C[C@@H](C(=O)OCc2ccccc2)NC(=O)C[C@@H](C(=O)OCc2ccccc2)N1 | > 100 | > 100 | > 100 | > 100 | > 100 | > 100 | > 100 | > 100 | 73.6 | 9.88
O=[N+]([O-])c1ccc2sc(C=Nc3cnccn3)cc2c1 | > 100 | > 100 | > 100 | > 100 | – | > 100 | > 100 | > 100 | > 100 | 43.8
NCCCN(CCCN(C(=O)Nc1ccccc1)c1ccccc1)C(=O)Nc1ccccc1 | – | > 100 | > 100 | > 100 | – | > 100 | 40.7 | > 100 | > 100 | 66.1
CCOC(=O)c1nc2ccc(C(F)(F)F)cc2nc1Oc1cc(OC)c(OC)c(OC)c1 | – | 63.7 | > 100 | > 100 | 7.69 | > 100 | 96.4 | > 100 | > 100 | > 100
O=C1CCCCCCCCCCC1CN1CCCC1 (stereo unspecified) | > 100 | 51.9 | > 100 | > 100 | – | > 100 | 31.6 | > 100 | > 100 | > 100
O=C1NC(=O)C(C(CC(=O)c2ccc([N+](=O)[O-])cc2)c2ccccc2)C(=O)N1 (stereo unspecified) | – | > 100 | > 100 | > 100 | > 100 | > 100 | > 100 | > 100 | 7.73 | > 100
NC(=O)c1cccc([N+](=O)[O-])c1 | > 100 | > 100 | > 100 | – | – | – | > 100 | > 100 | > 100 | > 100
CC(=O)N1CC(C)(C)c2c(C)c(O)c(C)c(C)c21 | – | > 100 | > 100 | > 100 | > 100 | > 100 | > 100 | > 100 | > 100 | > 100
COc1ccc(C2=Nc3cc(C)c(C)cc3NC(c3ccccc3)C2)cc1 (stereo unspecified) | > 100 | 37.6 | > 100 | – | > 100 | > 100 | > 100 | > 100 | > 100 | > 100
CC1C(=O)N(c2ccccc2)NC12CCCc1ccccc12 (stereo unspecified) | > 100 | > 100 | > 100 | > 100 | > 100 | > 100 | > 100 | > 100 | > 100 | > 100
Cc1cc(S(=O)(=O)N/C(=C(\C#N)C(=O)c2ccc(Cl)cc2)[n+]2ccc(N(C)C)cc2)c([S-])cc1Cl | > 100 | > 100 | > 100 | > 100 | > 100 | > 100 | > 100 | > 100 | > 100 | > 100
CC(=C(c1ccccc1)c1ccccc1)N1C(=O)CC(=O)N1C | 64.8 | > 100 | – | > 100 | 79.5 | > 100 | > 100 | > 100 | > 100 | –
COc1ccc(N2C(=O)CC(=O)N(C(=O)COc3ccc(OCC(=O)N4C(=O)CC(=O)N(c5ccc(OC)cc5)C4=S)cc3)C2=S)cc1 | 30.3 | 39.8 | > 100 | > 100 | > 100 | > 100 | > 100 | > 100 | > 100 | –
C[N+](C)(C)c1ccc(C(N)C(=O)O)cc1 (stereo unspecified) | > 100 | > 100 | > 100 | > 100 | > 100 | > 100 | > 100 | > 100 | > 100 | > 100
OCCO/N=C1\C(c2c(O)[nH]c3ccccc23)=Nc2ccccc21 | > 100 | > 100 | > 100 | > 100 | > 100 | > 100 | > 100 | > 100 | > 100 | > 100
COc1cc([C@@H]2c3cc4c(cc3[C@@H](c3c(O)cc(O)c5c3O[C@H](c3ccc(O)c(O)c3)[C@@H](O)C5)[C@H]3COC(=O)[C@H]23)OCO4)cc(OC)c1OC | 3.57 | 51.8 | > 100 | – | 3.35 | 3.38 | 92.7 | > 100 | 3.53 | > 100
COc1c(O)c(C=O)c2c(O)c(-c3c(C)cc4c(C(C)C)c(OC)c(O)c(C=O)c4c3O)c(C)cc2c1C(C)C | 16.9 | 4 | 14 | – | 14 | – | 22.7 | 8.45 | 19.3 | 41.4
CN(C)c1nc(N)nc(CS)n1 | > 100 | > 100 | > 100 | – | > 100 | > 100 | > 100 | > 100 | > 100 | 60.6
Cc1cccc(Nc2nn3c(=O)c4c5c(sc4nc3s2)CCCC5)c1 | > 100 | > 100 | > 100 | > 100 | > 100 | > 100 | > 100 | > 100 | > 100 | > 100
